{
  "source": "ChEMBL document CHEMBL1145691",
  "about": "“Hypoglycemic activity of some triterpenoid glycosides” (1997)",
  "type_in_all_cases": "functional",
  "details_in_all_cases": "route intraperitoneal",
  "key": {"Mus musculus [1]": {"system": "Mus musculus", "experiment": "Hypoglycemic activity in normal ddY mouse at 5 mg/kg, ip assessed as blood glucose level per 100 mL blood after 7 hrs"}, "Mus musculus [2]": {"system": "Mus musculus", "experiment": "Hypoglycemic activity in normal ddY mouse at 5 mg/kg, ip assessed as blood glucose level per 100 mL blood after 4 hrs"}, "Mus musculus [3]": {"system": "Mus musculus", "experiment": "Hypoglycemic activity in diabetic KK-Ay mouse at 5 mg/kg, ip assessed as blood glucose level per 100 mL blood after 7 hrs"}, "Mus musculus [4]": {"system": "Mus musculus", "experiment": "Hypoglycemic activity in diabetic KK-Ay mouse at 5 mg/kg, ip assessed as blood glucose level per 100 mL blood after 4 hrs"}, "Mus musculus [5]": {"system": "Mus musculus", "experiment": "Hypoglycemic activity in diabetic KK-Ay mouse at 1 mg/kg, ip assessed as blood glucose level per 100 mL blood after 7 hrs"}, "Mus musculus [6]": {"system": "Mus musculus", "experiment": "Hypoglycemic activity in normal ddY mouse at 1 mg/kg, ip assessed as blood glucose level per 100 mL blood after 7 hrs"}, "Mus musculus [7]": {"system": "Mus musculus", "experiment": "Hypoglycemic activity in diabetic KK-Ay mouse at 1 mg/kg, ip assessed as blood glucose level per 100 mL blood after 4 hrs"}, "Mus musculus [8]": {"system": "Mus musculus", "experiment": "Hypoglycemic activity in normal ddY mouse at 1 mg/kg, ip assessed as blood glucose level per 100 mL blood after 4 hrs"}, "Mus musculus [9]": {"system": "Mus musculus", "experiment": "Hypoglycemic activity in diabetic KK-Ay mouse at 50 mg/kg, ip assessed as blood glucose level per 100 mL blood after 7 hrs"}, "Mus musculus [10]": {"system": "Mus musculus", "experiment": "Hypoglycemic activity in normal ddY mouse at 50 mg/kg, ip assessed as blood glucose level per 100 mL blood after 7 hrs"}, "Mus musculus [11]": {"system": "Mus musculus", "experiment": "Hypoglycemic activity in diabetic KK-Ay mouse at 50 mg/kg, ip assessed as blood glucose level per 100 mL blood after 4 hrs"}, "Mus musculus [12]": {"system": "Mus musculus", "experiment": "Hypoglycemic activity in normal ddY mouse at 50 mg/kg, ip assessed as blood glucose level per 100 mL blood after 4 hrs"}},
  "data": [
    {"compound": "COc1ccc(/C=C/C(=O)O[C@@H]2[C@H](O)[C@@H](O[C@@H]3O[C@@H](C)[C@H](O[C@@H]4OC[C@@H](O[C@@H]5O[C@H](CO)[C@H](O)[C@H](O)[C@H]5O)[C@H](O)[C@H]4O)[C@@H](O)[C@H]3O)[C@H](OC(=O)[C@]34CCC(C)(C)C[C@@H]3C3=CC[C@@H]5[C@@]6(C)C[C@H](O[C@@H]7O[C@H](CO)[C@@H](O)[C@H](O)[C@H]7O)[C@H](O)[C@@](C)(C(=O)O)[C@@H]6CC[C@@]5(C)[C@]3(CO)CC4)O[C@@H]2C)cc1", "note": "[DESMETHOXYSENEGIN II]", "values": [
      {"measurement": "Activity", "setting": "Mus musculus [1]", "value": 195, "unit": "mg/dL"},
      {"measurement": "Activity", "setting": "Mus musculus [2]", "value": 199, "unit": "mg/dL"},
      {"measurement": "Activity", "setting": "Mus musculus [3]", "value": 325, "unit": "mg/dL"},
      {"measurement": "Activity", "setting": "Mus musculus [4]", "value": 306, "unit": "mg/dL"}
    ]},
    {"compound": "COc1ccc(/C=C/C(=O)O[C@@H]2[C@H](O[C@@H]3O[C@@H](C)[C@H](O)[C@@H](O)[C@H]3O)[C@@H](O[C@@H]3O[C@@H](C)[C@H](O[C@@H]4OC[C@@H](O[C@@H]5O[C@H](CO)[C@H](O)[C@H](O)[C@H]5O)[C@H](O)[C@H]4O)[C@@H](O)[C@H]3O)[C@H](OC(=O)[C@]34CCC(C)(C)C[C@@H]3C3=CC[C@@H]5[C@@]6(C)C[C@H](O[C@@H]7O[C@H](CO)[C@@H](O)[C@H](O)[C@H]7O)[C@H](O)[C@@](C)(C(=O)O)[C@@H]6CC[C@@]5(C)[C@]3(CO)CC4)O[C@@H]2C)cc1", "note": "[SENEGIN III]", "values": [
      {"measurement": "Activity", "setting": "Mus musculus [5]", "value": 210, "unit": "mg"},
      {"measurement": "Activity", "setting": "Mus musculus [1]", "value": 160, "unit": "mg/dL"},
      {"measurement": "Activity", "setting": "Mus musculus [6]", "value": 172, "unit": "mg"},
      {"measurement": "Activity", "setting": "Mus musculus [2]", "value": 151, "unit": "mg/dL"},
      {"measurement": "Activity", "setting": "Mus musculus [3]", "value": 146, "unit": "mg/dL"},
      {"measurement": "Activity", "setting": "Mus musculus [4]", "value": 204, "unit": "mg/dL"},
      {"measurement": "Activity", "setting": "Mus musculus [7]", "value": 195, "unit": "mg"},
      {"measurement": "Activity", "setting": "Mus musculus [8]", "value": 167, "unit": "mg"}
    ]},
    {"compound": "COc1ccc(/C=C/C(=O)O[C@@H]2[C@H](O)[C@@H](O[C@@H]3O[C@@H](C)[C@H](O[C@@H]4OC[C@@H](O[C@@H]5O[C@H](CO)[C@H](O)[C@H](O)[C@H]5O)[C@H](O)[C@H]4O)[C@@H](O)[C@H]3O)[C@H](OC(=O)[C@]34CCC(C)(C)C[C@@H]3C3=CCC5[C@@]6(C)C[C@H](O[C@@H]7O[C@H](CO)[C@@H](O)[C@H](O)[C@H]7O)[C@H](O)[C@@](C)(C(=O)O)[C@@H]6CC[C@@]5(C)[C@]3(CO)CC4)O[C@@H]2C)cc1OC", "note": "(stereo partly specified) [SENEGIN II]", "values": [
      {"measurement": "Activity", "setting": "Mus musculus [5]", "value": 305, "unit": "mg"},
      {"measurement": "Activity", "setting": "Mus musculus [1]", "value": 140, "unit": "mg/dL"},
      {"measurement": "Activity", "setting": "Mus musculus [6]", "value": 149, "unit": "mg"},
      {"measurement": "Activity", "setting": "Mus musculus [2]", "value": 137, "unit": "mg/dL"},
      {"measurement": "Activity", "setting": "Mus musculus [3]", "value": 182, "unit": "mg/dL"},
      {"measurement": "Activity", "setting": "Mus musculus [4]", "value": 217, "unit": "mg/dL"},
      {"measurement": "Activity", "setting": "Mus musculus [7]", "value": 226, "unit": "mg"},
      {"measurement": "Activity", "setting": "Mus musculus [8]", "value": 139, "unit": "mg"}
    ]},
    {"compound": "COc1ccc(/C=C/C(=O)O[C@@H]2[C@H](O[C@@H]3O[C@@H](C)[C@H](O)[C@@H](O)[C@H]3O)[C@@H](O[C@@H]3O[C@@H](C)[C@H](O[C@@H]4OC[C@@H](O[C@@H]5O[C@H](CO)[C@H](O)[C@H](O)[C@H]5O)[C@H](O)[C@H]4O)[C@@H](O[C@H]4OC[C@](O)(CO)[C@H]4O)[C@H]3O)[C@H](OC(=O)[C@]34CCC(C)(C)C[C@@H]3C3=CC[C@@H]5[C@@]6(C)C[C@H](O[C@@H]7O[C@H](CO)[C@@H](O)[C@H](O)[C@H]7O)[C@H](O)[C@@](C)(C(=O)O)[C@@H]6CC[C@@]5(C)[C@]3(CO)CC4)O[C@@H]2C)cc1", "note": "[SENEGIN IV]", "values": [
      {"measurement": "Activity", "setting": "Mus musculus [5]", "value": 276, "unit": "mg"},
      {"measurement": "Activity", "setting": "Mus musculus [1]", "value": 169, "unit": "mg/dL"},
      {"measurement": "Activity", "setting": "Mus musculus [6]", "value": 171, "unit": "mg"},
      {"measurement": "Activity", "setting": "Mus musculus [2]", "value": 187, "unit": "mg/dL"},
      {"measurement": "Activity", "setting": "Mus musculus [3]", "value": 388, "unit": "mg/dL"},
      {"measurement": "Activity", "setting": "Mus musculus [4]", "value": 276, "unit": "mg/dL"},
      {"measurement": "Activity", "setting": "Mus musculus [7]", "value": 207, "unit": "mg"},
      {"measurement": "Activity", "setting": "Mus musculus [8]", "value": 177, "unit": "mg"}
    ]},
    {"compound": "COc1cc(/C=C/C(=O)OC[C@@]2(O[C@H]3O[C@H](COC(C)=O)[C@@H](OC(=O)/C=C/c4ccc(O)c(OC)c4)[C@H](O[C@@H]4O[C@H](COC(C)=O)[C@@H](O[C@@H]5O[C@H](CO)[C@@H](O)[C@H](O)[C@H]5O)[C@H](O)[C@H]4O)[C@H]3O[C@@H]3O[C@H](CO)[C@@H](O)[C@H](O)[C@H]3O)O[C@H](CO)[C@@H](O)[C@@H]2OC(=O)c2ccccc2)ccc1O", "note": "[SENEGOSE A]", "values": [
      {"measurement": "Activity", "setting": "Mus musculus [1]", "value": 199, "unit": "mg/dL"},
      {"measurement": "Activity", "setting": "Mus musculus [2]", "value": 197, "unit": "mg/dL"},
      {"measurement": "Activity", "setting": "Mus musculus [3]", "value": 368, "unit": "mg/dL"},
      {"measurement": "Activity", "setting": "Mus musculus [4]", "value": 401, "unit": "mg/dL"}
    ]},
    {"compound": "CCCCNC(=O)NS(=O)(=O)c1ccc(C)cc1", "note": "[TOLBUTAMIDE]", "values": [
      {"measurement": "Activity", "setting": "Mus musculus [9]", "value": 370, "unit": "mg"},
      {"measurement": "Activity", "setting": "Mus musculus [10]", "value": 170, "unit": "mg"},
      {"measurement": "Activity", "setting": "Mus musculus [11]", "value": 495, "unit": "mg"},
      {"measurement": "Activity", "setting": "Mus musculus [12]", "value": 160, "unit": "mg"}
    ]}
  ]
}
